# Test system: cDNA probe
# Conditions: pH 7.5
row,Substance,event mean residence time [ms]
1,5′-GGATTATGGTGAAATATTGA-3′ [aLF-2],57.4 ± 2.5
2,5′-GGATTATTGTGAAATATTGA-3′ [aLF-1],342 ± 35
3,AAAAAAAAAAAAAAAAAAAA [A20],11.7 ± 0.2
4,TTTTTTTTTTTTTTTTTTTT [T20],0.12 ± 0.01
